Experimental data as given in PMC8745178, “Methyl 2-Halo-4-Substituted-5-Sulfamoyl-Benzoates as High Affinity and Selective Inhibitors of Carbonic Anhydrase IX” (International Journal of Molecular Sciences, 2021).

How the values were obtained:
[1] = determination of pKa of the sulfonamide group by UV-VIS spectra at various pH; type: physicochemical; settings: for f RSO2NH-, fraction of deprotonated sulfonamide: at pH 7.0, calculated from pKa; for pKa: calculated from spectra at various pH, 37 °C
CAIX = CAIX (Homo sapiens, UniProt Q16790); test: fluorescent thermal shift assay (FTSA), CAIX; type: binding; settings: for ΔGobs CAIX: pH 7
CAVII = CAVII (Homo sapiens, UniProt P43166); test: fluorescent thermal shift assay (FTSA), CAVII; type: binding; settings: 37 °C; for ΔGintr CAVII: converted from Kd_intr, independent of pH; for ΔGobs CAVII: converted from Kd_obs, pH 7.0, FTSA
CAIII = CAIII (Homo sapiens, UniProt P07451); test: fluorescent thermal shift assay (FTSA), CAIII; type: binding; settings: 37 °C; for ΔGintr CAIII: converted from Kd_intr, independent of pH; for ΔGobs CAIII: converted from Kd_obs, pH 7.0, FTSA
CAVB = CAVB (Homo sapiens, UniProt Q9Y2D0); test: fluorescent thermal shift assay (FTSA), CAVB; type: binding; settings: 37 °C; for ΔGintr CAVB: converted from Kd_intr, independent of pH; for ΔGobs CAVB: converted from Kd_obs, pH 7.0, FTSA
CAXIV = CAXIV (Homo sapiens, UniProt Q9ULX7); test: fluorescent thermal shift assay (FTSA), CAXIV; type: binding; settings: 37 °C; for ΔGintr CAXIV: converted from Kd_intr, independent of pH; for ΔGobs CAXIV: converted from Kd_obs, pH 7.0, FTSA
CAXII = CAXII (Homo sapiens, UniProt O43570); test: fluorescent thermal shift assay (FTSA), CAXII; type: binding; settings: 37 °C; for ΔGintr CAXII: converted from Kd_intr, independent of pH; for ΔGobs CAXII: converted from Kd_obs, pH 7.0, FTSA
CAI = CAI (Homo sapiens, UniProt P00915); test: fluorescent thermal shift assay (FTSA), CAI; type: binding; settings: 37 °C; for ΔGintr CAI: converted from Kd_intr, independent of pH; for ΔGobs CAI: converted from Kd_obs, pH 7.0, FTSA
CAVA = CAVA (Homo sapiens, UniProt P35218); test: fluorescent thermal shift assay (FTSA), CAVA; type: binding; settings: 37 °C; for ΔGintr CAVA: converted from Kd_intr, independent of pH; for ΔGobs CAVA: converted from Kd_obs, pH 7.0, FTSA
CAVI = CAVI (Homo sapiens, UniProt P23280); test: fluorescent thermal shift assay (FTSA), CAVI; type: binding; settings: 37 °C; for ΔGintr CAVI: converted from Kd_intr, independent of pH; for ΔGobs CAVI: converted from Kd_obs, pH 7.0, FTSA
CAXIII = CAXIII (Homo sapiens, UniProt Q8N1Q1); test: fluorescent thermal shift assay (FTSA), CAXIII; type: binding; settings: 37 °C; for ΔGobs CAXIII: converted from Kd_obs, pH 7.0, FTSA; for ΔGintr CAXIII: converted from Kd_intr, independent of pH
CAII = CAII (Homo sapiens, UniProt P00918); test: fluorescent thermal shift assay (FTSA), CAII; type: binding; settings: 37 °C; for ΔGintr CAII: converted from Kd_intr, independent of pH; for ΔGobs CAII: converted from Kd_obs, pH 7.0, FTSA
CAIV = CAIV (Homo sapiens, UniProt P22748); test: fluorescent thermal shift assay (FTSA), CAIV; type: binding; settings: 37 °C; for ΔGintr CAIV: converted from Kd_intr, independent of pH; for ΔGobs CAIV: converted from Kd_obs, pH 7.0, FTSA
CAIV, sequence (P22748 19-312): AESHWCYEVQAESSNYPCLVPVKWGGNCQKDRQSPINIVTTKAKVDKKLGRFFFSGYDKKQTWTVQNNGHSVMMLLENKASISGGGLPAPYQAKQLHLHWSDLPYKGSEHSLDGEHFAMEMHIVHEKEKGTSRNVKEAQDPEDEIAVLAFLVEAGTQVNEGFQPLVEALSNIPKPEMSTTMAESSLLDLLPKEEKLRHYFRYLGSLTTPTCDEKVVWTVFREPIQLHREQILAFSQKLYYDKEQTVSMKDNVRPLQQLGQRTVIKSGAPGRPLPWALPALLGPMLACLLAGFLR

CAVB, sequence (Q9Y2D0 34-317): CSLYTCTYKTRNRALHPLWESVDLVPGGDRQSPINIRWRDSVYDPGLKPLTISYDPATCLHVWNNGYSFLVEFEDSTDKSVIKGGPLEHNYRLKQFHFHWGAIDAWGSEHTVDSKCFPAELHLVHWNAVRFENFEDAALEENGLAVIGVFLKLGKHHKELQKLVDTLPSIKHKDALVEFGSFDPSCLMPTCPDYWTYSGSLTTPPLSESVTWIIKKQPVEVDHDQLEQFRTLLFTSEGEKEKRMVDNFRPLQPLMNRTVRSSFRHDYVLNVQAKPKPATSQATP
CAXIV, sequence (Q9ULX7 16-337): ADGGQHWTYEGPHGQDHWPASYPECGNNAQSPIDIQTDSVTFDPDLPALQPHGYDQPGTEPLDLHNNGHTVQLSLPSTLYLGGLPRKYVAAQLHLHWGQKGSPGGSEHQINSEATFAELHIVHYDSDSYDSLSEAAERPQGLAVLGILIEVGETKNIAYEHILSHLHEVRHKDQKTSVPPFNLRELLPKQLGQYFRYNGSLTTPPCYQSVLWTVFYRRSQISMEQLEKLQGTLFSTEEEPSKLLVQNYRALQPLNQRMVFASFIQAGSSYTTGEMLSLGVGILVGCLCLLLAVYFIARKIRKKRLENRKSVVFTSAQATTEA
CAXIII, sequence (Q8N1Q1 whole entry): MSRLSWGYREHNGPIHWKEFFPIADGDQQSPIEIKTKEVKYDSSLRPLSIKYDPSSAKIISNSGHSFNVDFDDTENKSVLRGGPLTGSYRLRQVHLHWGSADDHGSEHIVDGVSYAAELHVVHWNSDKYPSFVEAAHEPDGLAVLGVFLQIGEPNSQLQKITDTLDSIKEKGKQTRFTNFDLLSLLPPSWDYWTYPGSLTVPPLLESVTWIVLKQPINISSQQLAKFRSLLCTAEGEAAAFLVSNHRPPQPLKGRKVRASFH
CAIII, sequence (P07451 whole entry): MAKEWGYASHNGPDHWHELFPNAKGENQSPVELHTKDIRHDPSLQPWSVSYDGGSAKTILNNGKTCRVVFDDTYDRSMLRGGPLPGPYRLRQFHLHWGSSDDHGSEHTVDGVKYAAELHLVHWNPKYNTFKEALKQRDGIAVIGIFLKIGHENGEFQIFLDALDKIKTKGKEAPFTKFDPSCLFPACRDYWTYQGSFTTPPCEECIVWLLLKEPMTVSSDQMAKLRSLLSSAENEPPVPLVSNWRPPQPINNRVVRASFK
CAVI, sequence (P23280 18-308): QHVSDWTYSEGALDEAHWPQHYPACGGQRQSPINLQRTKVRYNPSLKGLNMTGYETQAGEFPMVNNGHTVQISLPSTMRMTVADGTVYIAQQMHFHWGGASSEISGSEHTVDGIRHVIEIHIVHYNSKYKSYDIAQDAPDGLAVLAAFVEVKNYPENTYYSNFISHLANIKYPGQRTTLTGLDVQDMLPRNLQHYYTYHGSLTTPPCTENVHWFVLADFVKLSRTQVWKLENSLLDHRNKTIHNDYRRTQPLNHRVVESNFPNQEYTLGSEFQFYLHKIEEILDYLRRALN
CAXII, sequence (O43570 25-354): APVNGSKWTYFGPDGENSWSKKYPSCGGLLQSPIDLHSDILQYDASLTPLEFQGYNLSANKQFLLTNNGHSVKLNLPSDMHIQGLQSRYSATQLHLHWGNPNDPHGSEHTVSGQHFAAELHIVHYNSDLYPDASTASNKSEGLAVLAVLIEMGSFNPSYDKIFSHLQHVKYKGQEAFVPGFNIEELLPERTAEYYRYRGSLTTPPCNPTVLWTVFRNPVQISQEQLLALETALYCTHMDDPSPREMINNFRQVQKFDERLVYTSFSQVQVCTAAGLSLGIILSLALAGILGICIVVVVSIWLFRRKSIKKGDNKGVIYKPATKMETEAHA
CAI, sequence (P00915 whole entry): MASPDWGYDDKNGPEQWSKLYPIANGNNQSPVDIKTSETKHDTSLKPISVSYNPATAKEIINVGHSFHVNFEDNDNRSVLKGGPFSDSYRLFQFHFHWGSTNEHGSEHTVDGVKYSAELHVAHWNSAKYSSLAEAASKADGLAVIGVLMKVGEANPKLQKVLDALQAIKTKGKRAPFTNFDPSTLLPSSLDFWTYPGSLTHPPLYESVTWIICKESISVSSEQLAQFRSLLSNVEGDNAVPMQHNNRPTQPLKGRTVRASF
CAVA, sequence (P35218 39-305): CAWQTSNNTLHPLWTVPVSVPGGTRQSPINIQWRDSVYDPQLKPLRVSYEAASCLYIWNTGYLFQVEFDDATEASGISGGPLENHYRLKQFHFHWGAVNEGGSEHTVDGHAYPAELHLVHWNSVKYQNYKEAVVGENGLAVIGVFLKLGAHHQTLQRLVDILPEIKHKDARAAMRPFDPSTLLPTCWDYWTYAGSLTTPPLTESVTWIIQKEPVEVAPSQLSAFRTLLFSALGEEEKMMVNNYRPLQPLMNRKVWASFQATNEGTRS
CAVII, sequence (P43166 whole entry): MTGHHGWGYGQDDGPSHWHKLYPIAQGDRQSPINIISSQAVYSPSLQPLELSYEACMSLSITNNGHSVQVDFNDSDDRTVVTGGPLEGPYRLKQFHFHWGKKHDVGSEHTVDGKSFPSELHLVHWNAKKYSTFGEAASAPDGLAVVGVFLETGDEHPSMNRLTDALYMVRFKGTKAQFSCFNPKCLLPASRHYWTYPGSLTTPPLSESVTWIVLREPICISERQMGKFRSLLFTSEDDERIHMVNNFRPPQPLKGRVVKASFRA

COC(=O)c1cc(S(N)(=O)=O)c(S(=O)(=O)C2CCCCC2)cc1Cl [Compound 7b, Methyl 2-chloro-4-cyclohexylsulfonyl-5-sulfamoylbenzoate]
f RSO2NH-, fraction of deprotonated sulfonamide [1]: 0.2%
pKa [1]: 9.8
ΔGintr CAIX (CAIX): -11.9 kcal/mol
ΔGobs CAIX (CAIX): -7.15 kcal/mol
ΔGintr CAVII (CAVII): ≥ -9.8 kcal/mol
ΔGobs CAVII (CAVII): ≥ -5.26 kcal/mol
ΔGintr CAIII (CAIII): -10.5 kcal/mol
ΔGobs CAIII (CAIII): -5.66 kcal/mol
ΔGintr CAVB (CAVB): -10.1 kcal/mol
ΔGobs CAVB (CAVB): -5.66 kcal/mol
ΔGintr CAXIV (CAXIV): -10.5 kcal/mol
ΔGobs CAXIV (CAXIV): -5.9 kcal/mol
ΔGintr CAXII (CAXII): -10.5 kcal/mol
ΔGobs CAXII (CAXII): -5.93 kcal/mol
ΔGintr CAI (CAI): -9.7 kcal/mol
ΔGobs CAI (CAI): -5.66 kcal/mol
ΔGintr CAVA (CAVA): -9.89 kcal/mol
ΔGobs CAVA (CAVA): -5.66 kcal/mol
ΔGintr CAVI (CAVI): -10.7 kcal/mol
ΔGobs CAVI (CAVI): -5.28 kcal/mol
ΔGobs CAXIII (CAXIII): -5.9 kcal/mol
ΔGintr CAII (CAII): -10.6 kcal/mol
ΔGobs CAII (CAII): -6.09 kcal/mol

COC(=O)c1cc(S(N)(=O)=O)c(Cl)cc1SCCc1ccccc1 [Compound 5d, Methyl 4-chloro-2-(2-phenylethylsulfanyl)-5-sulfamoylbenzoate]
ΔGintr CAIV (CAIV): -12.5 kcal/mol
ΔGobs CAIV (CAIV): -8.48 kcal/mol
f RSO2NH-, fraction of deprotonated sulfonamide [1]: 0.5%
pKa [1]: 9.3
ΔGintr CAIX (CAIX): -15.3 kcal/mol
ΔGobs CAIX (CAIX): -11.2 kcal/mol
ΔGobs CAVII (CAVII): -10.8 kcal/mol
ΔGintr CAVB (CAVB): -15.6 kcal/mol
ΔGobs CAVB (CAVB): -11.9 kcal/mol
ΔGintr CAXIV (CAXIV): -14.9 kcal/mol
ΔGobs CAXIV (CAXIV): -11 kcal/mol
ΔGintr CAI (CAI): -11.1 kcal/mol
ΔGobs CAI (CAI): -7.74 kcal/mol
ΔGintr CAVI (CAVI): -13.4 kcal/mol
ΔGobs CAVI (CAVI): -8.63 kcal/mol
ΔGintr CAXIII (CAXIII): -14.9 kcal/mol
ΔGobs CAXIII (CAXIII): -11.5 kcal/mol
ΔGintr CAII (CAII): -14.5 kcal/mol
ΔGobs CAII (CAII): -10.7 kcal/mol

COC(=O)c1cc(S(N)(=O)=O)c(Br)cc1Br [Compound 2, Methyl 2,4-dibromo-5-sulfamoyl-benzoate]
f RSO2NH-, fraction of deprotonated sulfonamide [1]: 1.6%
pKa [1]: 8.8
ΔGintr CAIX (CAIX): -13.2 kcal/mol
ΔGobs CAIX (CAIX): -9.85 kcal/mol
ΔGintr CAVII (CAVII): -13.5 kcal/mol
ΔGobs CAVII (CAVII): -10.3 kcal/mol
ΔGintr CAIII (CAIII): ≥ -8.7 kcal/mol
ΔGobs CAIII (CAIII): ≥ -5.26 kcal/mol
ΔGintr CAVB (CAVB): -13.6 kcal/mol
ΔGobs CAVB (CAVB): -10.6 kcal/mol
ΔGintr CAXIV (CAXIV): -13.6 kcal/mol
ΔGobs CAXIV (CAXIV): -10.5 kcal/mol
ΔGintr CAXII (CAXII): -12.3 kcal/mol
ΔGobs CAXII (CAXII): -9.2 kcal/mol
ΔGintr CAI (CAI): -9.27 kcal/mol
ΔGobs CAI (CAI): -6.67 kcal/mol
ΔGintr CAVI (CAVI): -13.3 kcal/mol
ΔGobs CAVI (CAVI): -9.3 kcal/mol
ΔGintr CAXIII (CAXIII): -12.8 kcal/mol
ΔGobs CAXIII (CAXIII): -10.2 kcal/mol
ΔGintr CAII (CAII): -13 kcal/mol
ΔGobs CAII (CAII): -9.99 kcal/mol

COC(=O)c1cc(S(N)(=O)=O)c(SC2CCCCCCCCCCC2)cc1Cl [Compound 3e, Methyl 2-chloro-4-(cyclododecylsulfanyl)-5-sulfamoylbenzoate]
ΔGintr CAIV (CAIV): -14 kcal/mol
ΔGobs CAIV (CAIV): -9.51 kcal/mol
f RSO2NH-, fraction of deprotonated sulfonamide [1]: 0.3%
pKa [1]: 9.6
ΔGintr CAIX (CAIX): -17.7 kcal/mol
ΔGobs CAIX (CAIX): -13.3 kcal/mol
ΔGintr CAVII (CAVII): -12 kcal/mol
ΔGobs CAVII (CAVII): -7.77 kcal/mol
ΔGintr CAIII (CAIII): ≥ -9.82 kcal/mol
ΔGobs CAIII (CAIII): ≥ -5.26 kcal/mol
ΔGintr CAVB (CAVB): -10 kcal/mol
ΔGobs CAVB (CAVB): -5.93 kcal/mol
ΔGintr CAXIV (CAXIV): -14.8 kcal/mol
ΔGobs CAXIV (CAXIV): -10.5 kcal/mol
ΔGintr CAI (CAI): -10.7 kcal/mol
ΔGobs CAI (CAI): -7 kcal/mol
ΔGintr CAVA (CAVA): ≥ -9.2 kcal/mol
ΔGobs CAVA (CAVA): ≥ -5.26 kcal/mol
ΔGintr CAVI (CAVI): -13.3 kcal/mol
ΔGobs CAVI (CAVI): -8.08 kcal/mol
ΔGintr CAXIII (CAXIII): -14.5 kcal/mol
ΔGobs CAXIII (CAXIII): -10.8 kcal/mol
ΔGintr CAII (CAII): -13.3 kcal/mol
ΔGobs CAII (CAII): -9.08 kcal/mol

COC(=O)c1cc(S(N)(=O)=O)c(Cl)cc1S(=O)(=O)C1CCCCC1 [Compound 9b, Methyl 4-chloro-2-cyclohexylsulfonyl-5-sulfamoyl-benzoate]
ΔGintr CAIV (CAIV): -12 kcal/mol
ΔGobs CAIV (CAIV): -9.51 kcal/mol
f RSO2NH-, fraction of deprotonated sulfonamide [1]: 5.9%
pKa [1]: 8.2
ΔGobs CAIX (CAIX): -12.8 kcal/mol
ΔGintr CAVII (CAVII): -16.2 kcal/mol
ΔGobs CAVII (CAVII): -13.8 kcal/mol
ΔGintr CAVB (CAVB): -15.1 kcal/mol
ΔGobs CAVB (CAVB): -13 kcal/mol
ΔGintr CAXIV (CAXIV): -15.4 kcal/mol
ΔGobs CAXIV (CAXIV): -13 kcal/mol
ΔGintr CAI (CAI): -12 kcal/mol
ΔGobs CAI (CAI): -10.2 kcal/mol
ΔGintr CAVA (CAVA): -10.9 kcal/mol
ΔGobs CAVA (CAVA): -8.94 kcal/mol
ΔGintr CAVI (CAVI): -13.7 kcal/mol
ΔGobs CAVI (CAVI): -10.5 kcal/mol
ΔGintr CAXIII (CAXIII): -14 kcal/mol
ΔGobs CAXIII (CAXIII): -12.1 kcal/mol
ΔGintr CAII (CAII): -15.3 kcal/mol
ΔGobs CAII (CAII): -13 kcal/mol
